Non-standard residues stand in square brackets, D forms with d. No end group written: not given here. NMeL = CN[C@@H](CC(C)C)C(=O)O
Experiments:
mouse spleen cells = assay: 24-hour dose response: IL-6 release from mouse spleen cells (ELISA of supernatants); type: cell-based; details: for IL-6: 24 hrs incubation, mouse spleen cells, ± SD
Procedure: (§1) Salt forms of EP67 (SEQ ID NO:2) generated using the above procedures were incubated at varying concentrations with murine splenocytes over time.
A 24-hour dose response was investigated by incubating mouse spleen cells for 24 hrs with varying concentrations of the EP67 salts. Supernatants were collected and assayed for IL-6 by ELISA.

mice spleen cells = assay: IL-6 kinetics: IL-6 release over time from mice spleen cells; type: cell-based, mouse; details: for IL-6: 100 μg/mL, mice spleen cells, ± SD
Procedure: as §1
Next, IL-6 kinetics were investigated by incubating mice spleen cells with 100 μg/mL of each salt form, and the release was examined over time.

## EP67•TFA: TFA salt form of EP67 (SEQ ID NO:2), comparator salt (YSFKDMP[NMeL][dA]R-OH; also: TFA salt)
Mouse spleen cells; 0.1 μg/mL activator
  IL-6: 178 ± 1 pg/mL
Mouse spleen cells; 1.0 μg/mL activator
  IL-6: 185 ± 2 pg/mL
Mouse spleen cells; 10 μg/mL activator
  IL-6: 308 ± 7 pg/mL
Mouse spleen cells; 100 μg/mL activator
  IL-6: 803 ± 6 pg/mL
Mice spleen cells; time collected 6 hr
  IL-6: 55 ± 1 pg/mL
Mice spleen cells; time collected 24 hr
  IL-6: 803 ± 6 pg/mL
Mice spleen cells; time collected 48 hr
  IL-6: 442 ± 13 pg/mL
Mice spleen cells; time collected 72 hr
  IL-6: 75 ± 6 pg/mL

## EP67•HCl: HCl salt form of EP67 (SEQ ID NO:2), a response selective C-terminal analog of C5a (YSFKDMP[NMeL][dA]R-OH; also: HCl salt)
Mouse spleen cells; 0.1 μg/mL activator
  IL-6: 176 ± 3 pg/mL
Mouse spleen cells; 1.0 μg/mL activator
  IL-6: 225 ± 1 pg/mL
Mouse spleen cells; 10 μg/mL activator
  IL-6: 738 ± 5 pg/mL
Mouse spleen cells; 100 μg/mL activator
  IL-6: 1163 ± 2 pg/mL
Mouse spleen cells; varying concentrations, murine splenocytes
  total amount of cytokine (IL-6) released from murine splenocytes, compared with other salt forms: outperformed the acetate (OAc) and, particularly, the TEA salt forms
Mice spleen cells; time collected 6 hr
  IL-6: 47 ± 1 pg/mL
Mice spleen cells; time collected 24 hr
  IL-6: 1163 ± 2 pg/mL
Mice spleen cells; time collected 48 hr
  IL-6: 923 ± 6 pg/mL
Mice spleen cells; time collected 72 hr
  IL-6: 200 ± 11 pg/mL
Mice spleen cells; murine splenocytes, over time
  kinetics of IL-6 release (time to maximal release), compared with other salt forms: maximal IL-6 release quicker than the other two salt forms

## EP67•OAc^−: acetate salt form of EP67 (SEQ ID NO:2), comparator salt (YSFKDMP[NMeL][dA]R-OH; also: acetate salt)
Mouse spleen cells; 0.1 μg/mL activator
  IL-6: 188 ± 1 pg/mL
Mouse spleen cells; 1.0 μg/mL activator
  IL-6: 325 ± 23 pg/mL
Mouse spleen cells; 10 μg/mL activator
  IL-6: 225 ± 20 pg/mL
Mouse spleen cells; 100 μg/mL activator
  IL-6: 780 ± 9 pg/mL
Mice spleen cells; time collected 6 hr
  IL-6: 188 ± 1 pg/mL
Mice spleen cells; time collected 24 hr
  IL-6: 325 ± 23 pg/mL
Mice spleen cells; time collected 48 hr
  IL-6: 900 ± 17 pg/mL

— patent US12552848B2, “Hydrochloride salts of C5a receptor agonist peptides” (Board of Regents of the University of Nebraska, priority 2017, dated 2026)
